Source: ChEMBL document CHEMBL3872232, “2-Azetidinones: Synthesis and biological evaluation as potential anti-breast cancer agents” (Eur J Med Chem, 2016)
Active and inactive are the calls of the source. The calls are words filed in the database; no cut-off is given here.

How the values were obtained:
MCF7 [1] = assay: Induction of apoptosis in human MCF7 cells assessed as late apoptotic cells at 5 uM after 24 hrs by Annexin V-FITC/propidium iodide staining based flow cytometry (reference value: 2.3%); type: functional
MDA-MB-231 [2] = assay: Ratio of Bcl-2 to Bax gene expression in human MDA-MB-231 cells at 5 uM after 24 hrs by RT-PCR method (reference value: 0.03); type: functional
MCF7 [3] = assay: Induction of apoptosis in human MCF7 cells assessed as necrotic cells at 5 uM after 24 hrs by Annexin V-FITC/propidium iodide staining based flow cytometry (reference value: 3.7%); type: functional
MDA-MB-231 [4] = assay: Effect on p27 mRNA expression in human MDA-MB-231 cells assessed as ratio of p27 to GAPDH expression level at 5 uM after 24 hrs by RT-PCR method (reference value: 0.23); type: functional
MDA-MB-231 [5] = assay: Induction of apoptosis in human MDA-MB-231 cells assessed as early apoptotic cells at 5 uM after 24 hrs by Annexin V-FITC/propidium iodide staining based flow cytometry (reference value: 0.5%); type: functional
Homo sapiens [6] = species on record: Homo sapiens; assay: Inhibition of Akt in human MDA-MB-231 cells assessed as ratio of phosphorylated Akt to GAPDH expression level at 5 uM after 48 hrs by immunoblot analysis (reference value: 0.33 to 0.81); type: cell-based
[7] = Cell cycle arrest in human MCF7 cells assessed as accumulation at S phase at 5 uM after 24 hrs by propidium iodide staining based flow cytometry (reference value: 4.23%); type: functional
[8] = Antiproliferative activity against human MCF7 cells after 48 hrs by MTT assay; type: functional, cell-based; details: MCF7, 48 h
[9] = Cell cycle arrest in human MCF7 cells assessed as accumulation at sub-G1 phase at 5 uM after 24 hrs by propidium iodide staining based flow cytometry (reference value: 3.58%); type: functional
MDA-MB-231 [10] = assay: Effect on Cdk6 mRNA expression in human MDA-MB-231 cells assessed as ratio of Cdk6 to GAPDH expression level at 5 uM after 24 hrs by RT-PCR method (reference value: 1.37); type: functional
[11] = Cell cycle arrest in human MCF7 cells assessed as accumulation at G0/G1 phase at 5 uM after 24 hrs by propidium iodide staining based flow cytometry (reference value: 83.25%); type: functional
MDA-MB-231 [12] = assay: Effect on p21 mRNA expression in human MDA-MB-231 cells assessed as ratio of p21 to GAPDH expression level at 5 uM after 24 hrs by RT-PCR method (reference value: 0.02); type: functional
MDA-MB-231 [13] = assay: Induction of apoptosis in human MDA-MB-231 cells assessed as necrotic cells at 5 uM after 24 hrs by Annexin V-FITC/propidium iodide staining based flow cytometry (reference value: 1.3%); type: functional
MDA-MB-231 [14] = assay: Effect on Cdk2 mRNA expression in human MDA-MB-231 cells assessed as ratio of Cdk2 to GAPDH expression level at 5 uM after 24 hrs by RT-PCR method (reference value: 0.26); type: functional
[15] = Cell cycle arrest in human MDA-MB-231 cells assessed as increase in cell accumulation at G2/M phase at 5 uM after 24 hrs by propidium iodide staining based flow cytometry; type: functional
MCF7 [16] = assay: Induction of apoptosis in human MCF7 cells assessed as early apoptotic cells at 5 uM after 24 hrs by Annexin V-FITC/propidium iodide staining based flow cytometry (reference value: 1.6%); type: functional
[17] = Antiproliferative activity against human mammary epithelial cells after 48 hrs by MTT assay; type: cell-based, Epithelial cell; details: Homo sapiens, Epithelial cell, 48 h; read-out: IC50
MDA-MB-231 [18] = assay: Effect on cyclin E mRNA expression in human MDA-MB-231 cells assessed as ratio of cyclin E to GAPDH expression level at 5 uM after 24 hrs by RT-PCR method (reference value: 0.13); type: functional
[19] = Antiproliferative activity against human MDA-MB-231 cells after 48 hrs by MTT assay; type: functional, cell-based; details: MDA-MB-231, 48 h
MDA-MB-231 [20] = assay: Effect on Bid gene expression in human MDA-MB-231 cells assessed as ratio of Bid to beta-actin expression level at 5 uM after 24 hrs by RT-PCR method (reference value: 0.17); type: functional
Homo sapiens [21] = species on record: Homo sapiens; assay: Inhibition of Akt in human MDA-MB-231 cells assessed as ratio of phosphorylated GSK-3beta to GAPDH expression level at 5 uM after 48 hrs by immunoblot analysis (reference value: 0.14 to 1.50); type: cell-based
MDA-MB-231 [22] = assay: Induction of apoptosis in human MDA-MB-231 cells assessed as late apoptotic cells at 5 uM after 24 hrs by Annexin V-FITC/propidium iodide staining based flow cytometry (reference value: 1.8%); type: functional
[23] = Cell cycle arrest in human MCF7 cells assessed as accumulation at G2/M phase at 5 uM after 24 hrs by propidium iodide staining based flow cytometry (reference value: 9.29%); type: functional
MDA-MB-231 [24] = assay: Effect on cyclin D1 mRNA expression in human MDA-MB-231 cells assessed as ratio of cyclin D1 to GAPDH expression level at 5 uM after 24 hrs by RT-PCR method (reference value: 0.71); type: functional
MDA-MB-231 [25] = assay: Effect on p53 gene expression in human MDA-MB-231 cells assessed as ratio of p53 to beta-actin expression level at 5 uM after 24 hrs by RT-PCR method (reference value: 0.22); type: functional
MDA-MB-231 [26] = assay: Inhibition of Akt in human MDA-MB-231 cells after 48 hrs by ELISA; type: cell-based
Homo sapiens [27] = species on record: Homo sapiens; assay: Inhibition of Akt in human MDA-MB-231 cells assessed as ratio of phosphorylated GSK-3beta to GAPDH expression level at 2 uM after 48 hrs by immunoblot analysis (reference value: 0.14 to 1.50); type: cell-based
MCF7 [28] = assay: Inhibition of Akt in human MCF7 cells assessed as GSK-3beta phosphorylation reduction in after 48 hrs by immunoblot analysis; type: cell-based
[29] = Cell cycle arrest in human MDA-MB-231 cells assessed as increase in cell accumulation at sub-G1 phase at 5 uM after 24 hrs by propidium iodide staining based flow cytometry; type: functional
Homo sapiens [30] = species on record: Homo sapiens; assay: Inhibition of Akt in human MDA-MB-231 cells assessed as ratio of phosphorylated Akt to GAPDH expression level at 2 uM after 48 hrs by immunoblot analysis (reference value: 0.33 to 0.81); type: cell-based
MCF7 [31] = assay: Induction of apoptosis in human MCF7 cells assessed as increase in necrotic cells at 5 uM after 24 hrs by Annexin V-FITC/propidium iodide staining based flow cytometry relative to colchicine; type: functional
Homo sapiens [32] = species on record: Homo sapiens; assay: Inhibition of Akt in human MDA-MB-231 cells assessed as ratio of phosphorylated GSK-3beta to GAPDH expression level at 10 uM after 48 hrs by immunoblot analysis (reference value: 0.14 to 1.50); type: cell-based
MDA-MB-231 [33] = assay: Inhibition of Akt phosphorylation in human MDA-MB-231 cells after 48 hrs by immunoblot analysis; type: cell-based
MCF7 [34] = assay: Inhibition of Akt phosphorylation in human MCF7 cells after 48 hrs by immunoblot analysis; type: cell-based
[35] = Safety index, ratio of compound IC50 to colchicine IC50 for human mammary epithelial cells; type: ADME, cell-based, Epithelial cell; details: read-out: Ratio IC50
Homo sapiens [36] = species on record: Homo sapiens; assay: Inhibition of Akt in human MDA-MB-231 cells assessed as ratio of phosphorylated Akt to GAPDH expression level at 10 uM after 48 hrs by immunoblot analysis (reference value: 0.33 to 0.81); type: cell-based
MDA-MB-231 [37] = assay: Inhibition of Akt in human MDA-MB-231 cells assessed as reduction in GSK-3beta phosphorylation after 48 hrs by immunoblot analysis; type: cell-based

| Compound | Activity (MCF7 [1]) | Ratio (MDA-MB-231 [2]) | Activity (MCF7 [3]) | Ratio (MDA-MB-231 [4]) | Activity (MDA-MB-231 [5]) | Ratio (Homo sapiens [6]) | Activity [7] | IC50 [8] | Activity [9] | Ratio (MDA-MB-231 [10]) | Activity [11] | Ratio (MDA-MB-231 [12]) | Activity (MDA-MB-231 [13]) | Ratio (MDA-MB-231 [14]) | Activity (MCF7 [16]) | IC50 [17] | Ratio (MDA-MB-231 [18]) | IC50 [19] | Ratio (MDA-MB-231 [20]) | Ratio (Homo sapiens [21]) | also measured |
| --- | --- | --- | --- | --- | --- | --- | --- | --- | --- | --- | --- | --- | --- | --- | --- | --- | --- | --- | --- | --- | --- |
| COc1cc2c(c(OC)c1OC)-c1ccc(OC)c(=O)cc1[C@@H](NC(C)=O)CC2 [COLCHICINE] | 1.8% | 0.1 | 6.5% | 0.6 | 2.3% | 0.23 to 0.44 | 10.3% | 0.072 µM | 7.4% | 1.56 | 66.2% | 0.6 | 0.9% | 0.39 | 1% | 9.26 µM | 0.19 | 3.55 µM | 0.42 | 0.12 to 1.45 | Activity [15]: Active; Activity (MDA-MB-231 [22]): 5.8%; Activity [23]: 16.2%; Ratio (MDA-MB-231 [24]): 1.5; Ratio (MDA-MB-231 [25]): 0.3 |
| CCOC(=O)/C(=C/c1ccccc1)CN1C(=O)[C@@H](OC)[C@H]1c1ccccc1Br | 6.7% | 0.01 | 13.1% | 0.41 | 2.2% | 0.03 | 5.17% | 5.79 µM | 12.9% | 0.19 | 71.2% | 0.03 | 0.9% | 0.18 | 4% | 66.6 µM | 0.03 | 6.86 µM | 0.56 | 0.61 | inhibition (MDA-MB-231 [26]): Dose-dependent effect; Ratio (Homo sapiens [27]): 1.16; inhibition (MCF7 [28]): Dose-dependent effect; Activity [29]: Active; Ratio (Homo sapiens [30]): 0.16; fold change (FC) (MCF7 [31]): 2; Ratio (Homo sapiens [32]): 0.58; inhibition (MDA-MB-231 [33]): Dose-dependent effect; inhibition (MCF7 [34]): Dose-dependent effect; Activity (MDA-MB-231 [22]): 5.4%; Activity [23]: 9.11%; Ratio (MDA-MB-231 [24]): 0.47; selectivity ratio [35]: 10; Ratio (Homo sapiens [36]): 0.01; Ratio (MDA-MB-231 [25]): 0.25; inhibition (MDA-MB-231 [37]): Dose-dependent effect |
